Assays:
postmenopausal women [1] = test: Randomized, double blind, placebo controlled study of oral lasofoxifene on joint pain (visual analog scale pain score); assay type: in vivo, human; settings: 3 months assessment, self-reported VAS 100 mm scale (0 mm=no pain, 100 mm=worst pain)
Experimental: (§1) The Effects of Oral Administration of (−)-cis-6-phenyl-5-[4-(2-pyrrolidin-1-yl-ethoxy)-phenyl]-5,6,7,8-tetrahydro-naphthalene-2-ol, D-tartrate salt (Iasofoxifene) on Joint Pain: A Randomized, Double Blind, Placebo Controlled Study Subjects: A double blind, randomized, placebo controlled trial of approximately three hundred and seventy five women between the ages of 50 and 74 years of age inclusive, and 1-20 years postmenopausal was carried out. The subjects selected for the study were ambulatory females between the ages of 50 and 74 years of age (inclusive) who gave written informed consent for participation in the study. […] The subject's Screening/Baseline mean L1-L4 lumbar bone mineral density (BMD) of the spine must be less than +2.0 standard deviations and greater than −2.5 standard deviations of age-and sex-matched bone mineral density (Z-score) as determined by standards of the manufacturer of the Dual X-ray Absorptiometer (DXA) used in the determination of that BMD. […] The subjects' endometrial thickness were typically <5 mm as determined by transvaginal ultrasound (TVU) and subjects outside of this criteria were asked to undergo additional baseline evaluation following initial randomization. […]

postmenopausal women [2] = test: Randomized, double blind, placebo controlled study of oral lasofoxifene on sleep (Sleep Problems subscale of Women's Health Questionnaire); assay type: in vivo, human; settings: 3 months assessment
Experimental: The Effects of Oral Administration of (−)-cis-6-phenyl-5-[4-(2-pyrrolidin-1-yl-ethoxy)-phenyl]-5,6,7,8-tetrahydro-naphthalene-2-ol, D-tartrate salt (lasofoxifene) on Sleep: A Randomized, Double Blind, Placebo Controlled Study
as §1, with “Subjects:” for “The Effects of Oral Administration of (−)-cis-6-phenyl-5-[4-(2-pyrrolidin-1-yl-ethoxy)-phenyl]-5,6,7,8-tetrahydro-naphthalene-2-ol, D-tartrate salt (Iasofoxifene) on Joint Pain: A Randomized, Double Blind, Placebo Controlled Study Subjects:”
Assessment Method: Patient self-report recorded on Sleep Problems subscale of standardized questionnaire, Women's Health Questionnaire (WHQ; Hunter, M. 1992. Psychology and Health, 7: 45-54).

O=C(O)C(O)C(O)C(=O)O.Oc1ccc2c(c1)CC[C@H](c1ccccc1)[C@@H]2c1ccc(OCCN2CCCC2)cc1 [Lasofoxifene, (−)-cis-6-phenyl-5-[4-(2-pyrrolidin-1-yl-ethoxy)-phenyl]-5,6,7,8-tetrahydro-naphthalene-2-ol, D-tartrate salt]
Joint Pain Changes Resulting From Treatment (Mean Change from Baseline) (postmenopausal women [1]; lasofoxifene 0.25 mg/day oral): −8.16 | Joint Pain Changes Resulting From Treatment (Mean Change from Baseline) (postmenopausal women [1]; lasofoxifene 1.0 mg/day oral): 4.52 | Improvement in sleep (less sleep disturbance) vs. placebo, in words (postmenopausal women [2]; lasofoxifene 0.4 mg treatment group vs. placebo): statistically significant improvement in sleep | Mean Change from Baseline (WHQ Sleep Problems subscale) (postmenopausal women [2]; lasofoxifene 0.4 mg/day oral, patient self-report): −0.09
